Reference: patent US6358936B2, “Compounds for the treatment of cancer” (Ardenia Investments, Ltd., priority 1998, dated 2002)
Where “and” joins values, the source holds several entries; their conditions need not be identical. Equal entries are not always repeated. Entries after “also recorded” stand apart in the source; their conditions may differ. Where two headings read alike, the source gives them in different places.

Assays:
[1] = tested on: EAC; settings: for EAC growth inhibition / number of tumour cells: days 2, 4, 6, day 9
[2] = tested on: EAC; assay: Effect of compound 1 with AFP on growth of EAC in C3H mice (Example 21); assay type: in vivo; settings: compound 1 1 mg/kg (20 μg/mouse) i.v. ×3, AFP none
Experimental: The influence of compound with different amount of AFP on the growth of EAC was studied. The experiments were carried out on inbred C3H mice having initial weight of 20-23 g. The used tumor cell strain was supported by i.p. passages to mice of the same line. At the beginning of the research (day 0) four groups, each of which contained 7 mice, were formed. All of the animals were inoculated by tumour cells in saline solution i.p. (5·10^6 cells in 0,2 ml per a mouse).
The first group of animals was untreated (negative control). The mice were injected by NMS. […] The animals of third and fourth groups were injected the same dose of compound 1, the protein being added to NMS (2,5 and 5 μg/mouse, accordingly). On the ninth day after inoculation by EAC cells the mice were killed and ascitic fluids were collected and estimated quantitatively. Tumor cells suspensions were prepared and aliquotes were mixed with equal volume of 0,1% trypan blue solution. The quantity of tumor cells were counted with hemocytometer.
Results of the experiments were evaluated by means of variation statistics method using Student t-test. The values of inhibiting effects of the preparations were represented as percentage in comparison with control.

[3] = tested on: EAC cells; assay: Antitumor effect of compound 1 and doxorubicin on EAC in C3H mice (Example 20); assay type: in vivo; settings: for Ascites volume / Tumor cell quantity / EAC growth inhibition, % to control: days 2, 4, 6, day 9
Experimental: 20-22 g males of C3H mice were used. Control and experimental groups included 7 animals, which were inoculated 5×10^6 EAC cells i.p. in volume 0.2 ml at day 0. […] One group of mice was untreated control. Results of experiment were accounted on ninth day. Mice were killed by cervical dislocation. Ascitic fluids were removed, collected, their volumes were measured, and abdominal cavities were washed by saline solution 6-7 times. Thus obtained fluids were pooled. The number of viable tumor cells was counted by hemocytometer, using trypan blue exclusion test. The mean and the standard mean error was calculated for each group of mice. Comparison of tumor cell number in control and experimental groups was carried out using Student t-test. Influence of tested preparation on EAC growth inhibition was evaluated by: [formula]

[4] = tested on: Ehrlich ascites carcinoma (EAC); assay: Anti-tumour effect of DXR complexes on Ehrlich ascites carcinoma growth in ICR mice (i.v. days 2, 4, 6; tumour cells counted day 8); assay type: in vivo; settings: DXR 3.5 mg/kg; C4 22.5 mg/kg or C5 12 mg/kg
Experimental: Random-bred albino mice of line ICR, male and female, from own rearing were used in the study. The room for animal housing was provided with filtered air at 15 changes per hour, a temperature of 19-21° C., relative humidity of 50-60% and regulated light day of 12 hours with change of light and darkness at 6 a.m. and 6 p.m. The mice were kept in transparent polycarbonate cages with a floor area of 600 cm^2 containing softwood sawdust bedding. […] The mice aged 2-2.5 months and having a weight of 19-22 g were randomly distributed in the control and test groups, standardised by mean weights. The control and test groups included 10 and 7 animals correspondingly. The mice of each group were identified by specific ear marks. The cages with animals of each group were identified by cage cards marked with the study date, group number, number and sex of the animals.
The strain of EAC was propagated in ICR mice by intraperitoneal inoculation of 0.2 ml native ascites fluid or 0.5 ml ascites fluid diluted by saline to 1:1 from one or two animals with intraperitoneally growing EAC on day 7. Ascites fluids contained more 98% of viable tumour cells according to trypan blue exclusion test. For the each study the suspension of EAC cells in sterile saline in concentration of 10^7 viable tumour cells/ml was prepared in aseptic conditions from ascites fluid of mouse bearing of EAC on day 7.
The mice of each control and experimental groups were inoculated by intraperitoneal injection of 2×10^6 EAC cells in volume of 0.2 ml at day 0. Intravenous injections for the study were carried out in lateral tail vein of mice once every other day, three times (day 2, 4 and 6) following inoculation of EAC cells. The mice of control group were injected by vehicle in volume of 2.5 ml/kg of body weight (50 μl to mouse of 20 g body weight) intravenously (negative control).
The mice were killed by cervical dislocation two days later after the final treatment with the test complexes on day 8. Ascites fluids were removed, collected, their volumes were recorded, and abdominal cavities were washed by saline 6-7 times and both fluids were pooled. After centrifugation at 1000 r.p.m. for 10 min volumes of tumour cell pellet were also recorded. Number of viable tumour cells was counted by hemocetometer. Means and standard errors for each groups were calculated. Comparison of tumour cell number in control and test groups was carried out using Student's t-test. The influence of tested preparations on EAC growth inhibition was evaluated by the following formula: [formula]

[5] = doses corresponding to 1 and 2.5 mg/kg of doxorubicin
[6] = doxorubicin dose 1 mg/kg i.v. in NMS
[7] = doxorubicin dose 2.5 mg/kg i.v. in NMS
[8] = dose 20 μg/mouse i.v. (doxorubicin equivalent, 1 mg/kg)
[9] = dose 20 μg/mouse i.v. (doxorubicin equivalent, 1 mg/kg), 1 mg/kg
[10] = dose 50 μg/mouse i.v. (doxorubicin equivalent, 2.5 mg/kg)
[11] = dose 100 μg/mouse i.v. (doxorubicin equivalent, 5 mg/kg)

| SMILES | EAC growth inhibition [1, 6] [%] | number of tumour cells [1, 6] | number of tumour cells [1, 7] | Ascites volume [3, 8] [mL] | Tumor cell quantity [3, 8] | EAC growth inhibition, % to control [3, 9] [%] | Ascites volume [3, 10] [mL] | Tumor cell quantity [3, 10] | Ascites volume [3, 11] [mL] | Tumor cell quantity [3, 11] | influence of the compound on the anti-tumour action of DXR in the DXR/compound complex [4] | also measured |
| --- | --- | --- | --- | --- | --- | --- | --- | --- | --- | --- | --- | --- |
| COc1cccc2c1C(=O)c1c(O)c3c(c(O)c1C2=O)C[C@@](O)(C(=O)CO)C[C@@H]3O[C@H]1C[C@H](NC(=O)\C=C(C)/C=C/C=C(C)/C=C/C2=C(C)CCCC2(C)C)[C@H](O)[C@H](C)O1 (relative stereo) [Compound 2, N-(13-cis-retinoyl)-doxorubicin] | 45.3 | 533.5±94.23 ×10^6 | 405.7±120.62 ×10^6 |  |  |  |  |  |  |  |  | antitumor effect in respect to EAC [1, 5]: exceeding the effect of doxorubicin alone; EAC growth inhibition [1, 7]: 58.4% |
| COc1cccc2c1C(=O)c1c(O)c3c(c(O)c1C2=O)CC(O)(C(=O)CO)CC3OC1CC(NC(=O)/C=C(C)/C=C/C=C(C)/C=C/C2=C(C)CCCC2(C)C)C(O)C(C)O1 (stereo not drawn) [Compound 1, N-(all-trans-retinoyl)-doxorubicin] |  |  |  | 3.50 ± 1.30 | 640.0 ± 78.04 × 10^6 | 47.3 | 2.10 ± 1.70 | 535.0 ± 167.90 × 10^6 | 3.30 ± 1.20 | 571.4 ± 66.96 × 10^6 |  | Ascites volume [2]: 2.0 ± 0.25 mL; Tumor cell quantity [2]: 1185.7 ± 266.2 × 10^6; EAC growth inhibition, % to control ([2]; 1 mg/kg): 45.0%; EAC growth inhibition, % to control ([2]; listed as compound 1, 1 mg/kg): 45%; EAC growth inhibition, % to control ([3]; dose 20 μg/mouse i.v. (doxorubicin equivalent, 1 mg/kg), listed as compound 1, 1 mg/kg): 47%; EAC growth inhibition, % to control ([3]; dose 50 μg/mouse i.v. (doxorubicin equivalent, 2.5 mg/kg), 2.5 mg/kg): 55.9%; EAC growth inhibition, % to control ([3]; dose 50 μg/mouse i.v. (doxorubicin equivalent, 2.5 mg/kg), listed as compound 1, 2.5 mg/kg): 57% and 56%; EAC growth inhibition, % to control ([3]; dose 100 μg/mouse i.v. (doxorubicin equivalent, 5 mg/kg), 5 mg/kg): 52.9%; EAC growth inhibition, % to control ([3]; dose 100 μg/mouse i.v. (doxorubicin equivalent, 5 mg/kg), listed as compound 1, 5 mg/kg): 53%; anti-tumour effect towards EAC [3, 5]: exerts high anti-tumour effect towards EAC |
| CCCCC/C=C\C/C=C\C/C=C\C/C=C\CCCC(=O)NCCOP(=O)(O)O [C5, N-arachidonoyl-o-phospho-2-aminoethanol] |  |  |  |  |  |  |  |  |  |  | canceled the anti-tumour action of DXR; also recorded: cancelled the anti-tumour action of DXR |  |
| CC/C=C\C/C=C\C/C=C\C/C=C\C/C=C\C/C=C\CCC(=O)N[C@H](C(=O)O)[C@@H](C)OP(=O)(O)O [C11, N-docosahexaenoyl-o-phospho-L-threonine] |  |  |  |  |  |  |  |  |  |  | canceled the anti-tumour action of DXR |  |
| CC1=C(/C=C/C(C)=C/C=C/C(C)=C/C(=O)N[C@@H](Cc2ccc(OP(=O)(O)O)cc2)C(=O)O)C(C)(C)CCC1 (stereo in doubt) [C4, N-(all-trans-retinoyl)-o-phospho-L-tyrosine] |  |  |  |  |  |  |  |  |  |  | cancelled the anti-tumour action of DXR |  |
| COc1cccc2c1C(=O)c1c(O)c3c(c(O)c1C2=O)C[C@@](O)(C(=O)CO)C[C@@H]3O[C@H]1C[C@H](N)[C@H](O)[C@H](C)O1 [DXR, doxorubicin, reference compound] | 34.8 | 635.9±122.78 ×10^6 | 537.4±92.89 ×10^6 | 2.85 ± 1.35 | 765.8 ± 127.52 × 10^6 | 36.9 | 1.85 ± 1.10 | 662.1 ± 99.17 × 10^6 | 0.80 ± 0.60 | 350.0 ± 108.21 × 10^6 |  | EAC growth inhibition, % to control [3, 11]: 71.2% |
